Entries after “also recorded” stand apart in the source; their conditions may differ.

The subject of experiment [1] is HIV-1 ID12 (clade A/E, R5). Put plainly: p24 production in HIV-infected PBMC, clinical isolate ID12. In kind it is cell-based. The settings on record: inhibit p24 production of HIV-infected PBMC. As to the method:
(§1) Buffy coat preparations from healthy donors were obtained from the Blood Bank in Leuven. Peripheral blood mononuclear cells (PBMC) were isolated by density gradient centrifugation over Lymphoprep (density = 1.077 g/ml; Nycomed, Oslo, Norway). The PBMC were transferred to RPMI 1640 medium supplemented with 10% fetal calf serum (BioWhittaker Europe) and 2 mM L-glutamine and then stimulated for 3 days with phytohemagglutinin (PHA; Murex Biotech Limited, Dartford, United Kingdom) at 2 μg/ml. […] Supernatant was collected at days 8 to 10, and HIV-1 core antigen in the culture supernatant was analyzed by the p24 core antigen enzyme-linked immunosorbent assay (ELISA; DuPont-Merck Pharmaceutical Co., Wilmington, Del.).

Experiment [2] has as its system HIV-2(ROD). The experiment can be described thus: Antiretrovirus assay, HIV-2(ROD)-induced cytopathicity (syncytium formation) in CEM cell cultures. The format is cell-based. The settings on record: inhibit virus-induced cytopathicity in CEM cell cultures by 50%. How it is done: (§2) CEM cells (5 × 10^5 cells per ml) were suspended in fresh culture medium and infected with HIV-1 and HIV-2 at 100 times the CCID50 (50% cell culture infective doses) per ml of cell suspension, of which 100 μl was mixed with 100 μl of the appropriate dilutions of the test compounds, and further incubated at 37°C. After 4 to 5 days, syncytia formation was recorded microscopically in the cell cultures. The 50% effective concentration (EC50) corresponds to the compound concentration required to prevent syncytium formation by 50% in the virus-infected CEM cell cultures.

The test system of experiment [3] is HIV-1(IIIB). The experiment can be described thus: Antiretrovirus assay, HIV-1(IIIB)-induced cytopathicity (syncytium formation) in CEM cell cultures. The format is cell-based. The settings on record: inhibit virus-induced cytopathicity in CEM cell cultures by 50%. How it is done:
as §2

Experiment [4] concerns syncytia formation between HuT-78/HIV-1 and Sup-T1 cells. Put plainly: Co-cultivation assay between Sup-T1 and persistently HIV-1-infected HuT-78 cells (syncytia formation). In kind it is cell-based, Human. The settings on record: inhibit syncytia formation between HuT-78/HIV-1 and Sup-T1 cells by 50%. How it is done:
Persistently HIV-1(IIIB)-infected HuT-78 cells (designated HuT-78/HIV-1) were washed to remove cell-free virus from the culture medium, and 5 × 10^4 cells (50 μl) were transferred to 96-well microtiter plates. Next, a similar amount of Sup-T1 cells (50 μl) and appropriate concentrations of test compound (100 μl), were added to each well.

Experiment [5] concerns HIV-1 UG273 (clade A, R5). The experiment can be described thus: p24 production in HIV-infected PBMC, clinical isolate UG273. The settings on record: inhibit p24 production of HIV-infected PBMC. The format is cell-based. How it is done: as §1
Experiment [6] relates to HIV-1(BaL) (Clade B). The experiment can be described thus: p24 production in HIV-infected PBMC, BaL. The format is cell-based. The settings on record: inhibit p24 production of HIV-infected PBMC. As to the method: as §1
Experiment [7] deals with transmission of DC-SIGN-captured HIV-1(IIIB) to CD4+ T-lymphocyte C8166 cells. Put plainly: Transmission of DC-SIGN-captured HIV-1(IIIB) to C8166 cells (syncytia formation). The settings on record: transmission of DC-SIGN-captured virions to CD4+ T cells (C8166). In kind it is cell-based. How it is done: (§3) The experiment was performed as described previously. Briefly, B-lymphocyte DC-SIGN-expressing (Raji/DC-SIGN) cells were suspended in cell culture medium at 2 × 10^6 cells/ml. 100 μl of HIV-1(IIIB) (~250,000 pg p24) were added in the presence of 400 μl of serial dilutions of the test compounds. After 60 minutes of incubation, the cells were carefully washed 3 times to remove unbound virions and resuspended in 1 ml of cell culture medium. The captured HIV-1(IIIB) was quantified by a p24 Ag ELISA. From the Raji/DC-SIGN cell suspension, 200 μl were also added to the wells of a 48-well microtiter plate in the presence of 800 μl uninfected C8166 cells (2.5 × 10^5 cells/ml). These cocultures were further incubated at 37°C, and syncytia formation was evaluated microscopically after ~ 18 to 42 h, and viral p24 Ag determination in the culture supernatants was performed.
(§4) One hour later, free virus particles and the test compounds were carefully removed from the cell cultures by several washing steps.

For experiment [8], the system named is DC-SIGN-mediated capture of HIV-1(IIIB) by Raji/DC-SIGN cells. Put plainly: Capture of HIV-1(IIIB) by Raji/DC-SIGN cells (p24 Ag ELISA). The settings on record: HIV-1(IIIB) capture by Raji/DC-SIGN cells. The format is cell-based. How it is done: as §3, §4
In experiment [9] the test system is HIV-1 DJ259 (clade C, R5). Put plainly: p24 production in HIV-infected PBMC, clinical isolate DJ259. The settings on record: inhibit p24 production of HIV-infected PBMC. The format is cell-based. As to the method:
as §1

The target of experiment [10] is immobilized GNAmaize. Put plainly: SPR steady-state affinity of oligosaccharides with immobilized GNAmaize. On the set-up: species or system Zea mays. The settings on record: apparent, N.D. = not detectable, binding detected = KD could not be determined. As to the method: (§5) The experimental data were fit using the steady-state affinity model (Biacore T100 Evaluation software 2.0.2) to determine the apparent KD-values.
(§6) The apparent KD was calculated by steady-state affinity analysis (Table 6).

The target in experiment [11] is immobilized GNA (Galanthus nivalis, UniProt P30617). The experiment can be described thus: SPR steady-state affinity of oligosaccharides with immobilized GNA. The settings on record: apparent, N.D. = not detectable, no binding curves. How it is done:
as §5, §6

Chain of immobilized GNA (P30617 24-128): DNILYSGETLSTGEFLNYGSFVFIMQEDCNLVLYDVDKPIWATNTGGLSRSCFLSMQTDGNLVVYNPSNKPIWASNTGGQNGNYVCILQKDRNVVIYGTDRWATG

Regarding “GNA: mannose-specific tetrameric plant lectin of 50 kDa from snowdrop (Galanthus nivalis) bulbs”, the “EC50 Clade A/E, ID12” value in experiment [1] came to 0.38 µM. The EC50 in experiment [2] stood at 8 ± 1 nM; in [3] it was 7 ± 1 nM; in experiment [4] it was 62 ± 64 nM; in [5], 46 nM; in [6] it was 130 nM; in experiment [7] it was 6 ± 5 nM. The values for the EC50 in [8] and in experiment [9] were 40 ± 10 nM and 840 nM, respectively.
Consider `CC(=O)N[C@H]1[C@H](O[C@H]2[C@H](O)[C@@H](NC(C)=O)C(O)O[C@@H]2CO)O[C@H](CO)[C@@H](O[C@@H]2O[C@H](CO[C@H]3O[C@H](CO)[C@@H](O)[C@H](O)[C@@H]3O[C@@H]3O[C@H](CO)[C@@H](O)[C@H](O)[C@H]3NC(C)=O)[C@@H](O)[C@H](O[C@H]3O[C@H](CO)[C@@H](O)[C@H](O)[C@@H]3O[C@@H]3O[C@H](CO)[C@@H](O)[C@H](O)[C@H]3NC(C)=O)[C@@H]2O)[C@@H]1O` (some centres unmarked) [GlcNAcβ1,2Manα1,3(GlcNAcβ1,2Manα1,6)Manβ1,4GlcNAcβ1,4GlcNAc], for which the “KD, immobilized GNAmaize” value is “binding detected^b” in experiment [10] and “able to bind” in experiment [10] (listed as GlcNAcβ1,2Manα1,3(GlcNAcβ1,2Manα1,6) Manβ1,4GlcNAcβ1,4GlcNAc). Further, in [11], the “KD, immobilized GNA” value was “not to GNA”.
As for `OC[C@H]1O[C@H](O[C@H]2[C@H](O)[C@@H](CO)OC(O)[C@H]2O)[C@@H](O)[C@@H](O)[C@@H]1O` (stereo partly drawn) [(α1,3-man)2], the “KD, immobilized GNAmaize” value in [10] was “did not bind”. Besides, in experiment [11], the “KD, immobilized GNA” value is “preferentially bind” and the Kd is above 2 mM.
Regarding `CC(=O)N[C@H]1[C@H](O[C@@H]2C(O)O[C@H](CO)[C@@H](O)[C@@H]2O)O[C@H](CO)[C@@H](O)[C@@H]1O` (some centres unmarked) [GlcNAcβ1,2Man, GlcNAcß1,2Man], the “KD, immobilized GNAmaize” value is “binding detected^b” in [10] and “able to measurably bind” in [10] (listed as GlcNAcß1,2Man). The “KD, immobilized GNA” value in [11] is “didn't bind; also recorded: not to GNA”.
Regarding `OC[C@H]1O[C@H](O[C@@H]2[C@@H](O[C@@H]3C(O)O[C@H](CO)[C@@H](O)[C@@H]3O)O[C@H](CO)[C@@H](O)[C@@H]2O)[C@@H](O)[C@@H](O)[C@@H]1O` (stereo partly drawn) [(α1,2-man)3], the “KD, immobilized GNAmaize” value in [10] is recorded as “did not bind”. Besides, the Kd in experiment [11] is above 1 mM.

The values are drawn from PMC3048538, “Differences in the mannose oligomer specificities of the closely related lectins from Galanthus nivalis and Zea mays strongly determine their eventual anti-HIV activity” (Retrovirology, 2011).
